Assay results as given in US10174355B2, “Method for glycosylation of ginsenoside using a glycosyltransferase derived from panax ginseng” (KOREA ADVANCED INSTITUTE OF SCIENCE AND TECHNOLOGY, priority 2014, dated 2019).

Legend:
PgUGT71A1 = assay: In-vitro glycosyltransferase assay of recombinant PgUGT71A1 with ginsenoside substrates and UDP-glucose; format: biochemical, Panax ginseng; conditions: for conversion by PgUGT71A1 (product formed), HPLC / conversion by PgUGT71A1 (product formed), TLC: ginsenoside 5 mM, UDP-glucose 50 mM, 35° C., 12 hours; for conversion by PgUGT71A1 (product formed), HPLC: FIG. 2 bottom; for conversion by PgUGT71A1 (product formed), TLC: FIG. 2 top; for reaction with PgUGT71A1 confirmed by thin-layer chromatography: screen of 9 ginsenosides incubated with recombinant PgUGT71A1 in the presence of UDP-glucose; for conversion by PgUGT71A1 (product formed), TLC / reaction with PgUGT71A1 confirmed by thin-layer chromatography: TLC
Procedure: A glycosyltransferase assay was conducted in a reaction buffer (10 mM PBS buffer, pH 7) containing the purified PgUGT71A1 (30 μg), a ginsenoside compound (5 mM) and UDP-glucose (50 mM). For this assay, 4 different types of ginsenosides, i.e., protopanaxadiol (PPD), protopanaxatriol (PPT), Rh2 and Rg3, were caused to react the enzyme of the present disclosure.
The reaction mixture was incubated at 35° C. for 12 hours and the resulting products were analyzed by thin-layer chromatography (TLC) or high-performance liquid chromatography (HPLC).
The TLC analysis was performed using a mobile phase (acetone:methanol:DDW=65:35:10 vol/vol) and a 60F254 silica gel plate (Merck, Germany). The resolved product on the TLC plate was detected by spraying 10% (vol/vol) sulfuric acid (H2SO4) and heating at 110° C. for 5 minutes.
The HPLC analysis was performed using an ODS(2) C18 column (Phenomenex, USA). The condition of gradient application of water and acetonitrile was as follows: flow rate=1 mL/min, 0 minute, 68% water and 32% acetonitrile; 8 minutes, 35% water and 65% acetonitrile; 12 minutes, 0% water and 100% acetonitrile; 20 minutes, 0% water and 100% acetonitrile; 20.1 minutes, 68% water and 32% acetonitrile; and 28 minutes, 68% water and 32% acetonitrile.
The ginsenosides were detected by monitoring at a wavelength of 203 nm using a UV detector (Agilent, USA).
First, the recombinant PgUGT of Example 1, PgUGT71A1, was incubated with 9 different types of ginsenosides (PPD, Rh2, Rg3, C—K, F2, Rd, PPT, F1, and Rh1) in the presence of UDP-glucose.
In order to confirm the result again, 4 different types of ginsenosides (PPD, PPT, Rh2, and Rg3) were incubated with PgUGT71A1, and the products converted by the recombinant PgUGT71A1 were analyzed by TLC. The result is shown at the top of FIG. 2. The result was confirmed by comparing the locations of the migrating spots with those of PPD, PPT, Rh2, Rg3, C—K, F2, Rd, and F1 used as standard samples.

PgUGT71A1 expression = assay: Expression of PgUGT71A1 in ginseng leaves and roots after methyl jasmonate treatment (real-time PCR, NGS); format: in vivo, Panax ginseng; conditions: 200 μM MeJA sprayed onto leaves of 15-month-old ginseng daily for 5 days, sampled 6th day, FIGS. 3 and 4
Procedure: Total RNA was isolated from the leaf or root of 15-month-old ginseng using the Spectrum Plant Total RNA kit (Sigma-Aldrich). 200 μM methyl jasmonate (MeJA) was sprayed onto the leaves of ginseng every day for a total of 5 days and samples were collected on the 6th day. 1 μg of the total RNA was used for cDNA synthesis.
The expression level of different genes was examined by quantitative RT-PCR using the primer sets listed in Table 1, and the result was normalized to the expression level of tubulin.
RNA was extracted from the leaf and root of ginseng which had been treated and not treated with MeJA, and a cDNA library was constructed from 1 μg of the total RNA using the TruSeq RNA library kit. Following polyA-selected RNA extraction, RNA fragmentation and random hexamer-primed reverse transcription, 100 nt paired-end sequencing was conducted using Illumina HiSeq2000.
The resulting sequences were subjected to de novo transcriptome assembly using the Trinity (2011-11-26 version) program. The produced contigs (transcripts) were analyzed using Blast (version 2.2.25+). The GO database (released on 20-04-2012) and the NR database of NCBI (download date: 2012/05/07) were used. […] The expression level was expressed as fragments per kilobase of exon per million fragments mapped (FPKM) with a program released by the Trinity group using the RSEM algorithm. […]

Row | SMILES | conversion by PgUGT71A1 (product formed), HPLC (PgUGT71A1) | conversion by PgUGT71A1 (product formed), TLC (PgUGT71A1) | reaction with PgUGT71A1 confirmed by thin-layer chromatography (PgUGT71A1) | expression of PgUGT71A1 after MeJA treatment (PgUGT71A1 expression)
1 | CC(C)=CCCC(C)(O)[C@H]1CC[C@]2(C)[C@@H]1[C@H](O)C[C@@H]1[C@@]3(C)CC[C@H](O)C(C)(C)[C@@H]3CC[C@]12C (stereo in doubt) [PPD, protopanaxadiol] | converted PPD to C—K | converted PPD to compound K (C—K) | reaction occurred | –
2 | CC/C=C\CC1C(=O)CCC1CC(=O)OC (stereo not shown) [MeJA, methyl jasmonate] | – | – | – | significantly enhanced
3 | CC(C)=CCC[C@](C)(O)[C@H]1CC[C@]2(C)[C@@H]1[C@H](O)C[C@@H]1[C@@]3(C)CC[C@H](O)C(C)(C)[C@@H]3[C@@H](O)C[C@]12C [PPT, protopanaxatriol] | PPT to F1 | PPT to F1 | reaction occurred | –
4 | CC(C)=CCC[C@](C)(O)[C@H]1CC[C@]2(C)[C@@H]1[C@H](O)C[C@@H]1[C@@]3(C)CC[C@H](O[C@@H]4O[C@H](CO)[C@@H](O)[C@H](O)[C@H]4O[C@@H]4O[C@H](CO)[C@@H](O)[C@H](O)[C@H]4O)C(C)(C)[C@@H]3CC[C@]12C [Rg3] | Rg3 to Rd | Rg3 to Rd | reaction occurred | –
5 | CC(C)=CCC[C@](C)(O)[C@H]1CC[C@]2(C)[C@@H]1[C@H](O)C[C@@H]1[C@@]3(C)CC[C@H](O[C@@H]4O[C@H](CO)[C@@H](O)[C@H](O)[C@H]4O)C(C)(C)[C@@H]3CC[C@]12C [Rh2] | Rh2 to F2 | Rh2 to F2 | reaction occurred | –
